What was measured:
NCI-H146 cells = test: Cell viability IC50 (CCK-8), small cell lung cancer cell line H146; type: cell-based; settings: Homo sapiens, NCI-H146; H146, CCK-8
Protocol: (§1) Small cell lung cancer cell lines DMS114, NCI-H1688, NCI-H82, NCI-H146, and NCI-H446 cells were cultured in RPMI-1640 medium containing 10% fetal bovine serum and 1% penicillin-streptomycin. All the cells were cultured in a constant temperature incubator containing 5% CO2 at 37° C.
(§2) Small cell lung cancer is a highly heterogeneous malignant tumor, and its clinical treatment is mainly based on traditional chemotherapy (mainly platinum medicaments and etoposide). In order to study the anti-tumor activity of the compounds of the present disclosure in small cell lung cancer, the CCK-8 method was used to investigate the cell viability IC50 of compound 8 for five small cell lung cancer cell lines.

NCI-H82 cells = test: Cell viability IC50 (CCK-8), small cell lung cancer cell line H82; type: cell-based; settings: Homo sapiens, NCI-H82; H82, CCK-8
Protocol: as §1, §2

PE039 primary cells = test: Cell viability IC50 (CCK-8), primary cells PE039 from small cell lung cancer pleural effusion; type: cell-based; settings: PE039, CCK-8
Protocol: (§3) (1) The pleural effusion was poured into a 15 mL or 50 mL of sterilized centrifuge tube for centrifugation. Centrifugation conditions: 800 to 1000 rpm, 5 min.
(§4) (2) The precipitate was resuspended and washed for 2 to 3 times with PBS.
(§5) (3) The cell precipitate was resuspended with complete culture medium (α-MEM medium containing 10% fetal bovine serum and 2% penicillin-streptomycin), and the flocculent matter in the pleural effusion was removed using a sterilized cell sieve.
(§6) (4) The red blood cells in the pleural effusion were removed with lymphocyte separation fluid, and the tumor cells and lymphocyte components were collected. The number of tumor cells was observed under a microscope, and the cells were inoculated.
(§7) (5) After 24 hours, the supernatant was discarded, and fresh culture medium was added for further culture.
(§8) (6) The cell growth status was observed, and it was determined based on the cell status whether the medium was required to be continuously changed to remove blood cells. When the cells grew to a density of 80% to 90%, the cells were preserved.
(§9) (1) Primary cells from lung cancer pleural effusion within 5 generations were cultured to the logarithmic growth phase. […] After centrifugation at room temperature, the supernatant was discarded, and the cell precipitate was resuspended with fresh complete culture medium. After counting, the cells were placed at room temperature for later use. The cells were inoculated into a 384-well plate at a density of 2000 cells/well with a volume of 40 μl/well. The wells at the outermost circle of the plate were not inoculated with cells, and instead, added with sterile water to reduce evaporation of the culture medium.
(§10) (2) After overnight culture of the cells, the medium was discarded, and a fresh medium containing different concentrations of compounds was added at 200 μl/well. The dilution method of the compound was as follows: first the compound with the highest concentration of 10 μM was prepared, and then the compound was diluted for 3 times in sequence. […] At the same time, a blank control group was set up, in which only an equal volume of culture medium was added without adding cells. Five replicate wells were set up for each group. The cells were placed in the incubator for further culture.
(§11) (3) After 72 hours, 8 μl of CCK-8 solution, which was double-diluted with 10 mM PBS, was added to each well, and the cells were shaken and placed in an incubator at 37° C. for further culture for 2 hours.
(4) The light absorbance value at 450 nm was read using a microplate reader, and the IC50 was calculated according to the absorbance value. The calculation method was the same as above. […]

PE052 primary cells = test: Cell viability IC50 (CCK-8), primary cells PE052 from small cell lung cancer pleural effusion; type: cell-based; settings: PE052, CCK-8
Protocol: as §3, §4, §5, §6, §7, §8, §9, §10, §11
(§12) (4) The light absorbance value at 450 nm was read using a microplate reader, and the IC50 was calculated according to the absorbance value. The calculation method was the same as above.
(§13) (1) Sample information: PE039, PE052, and PE062 were all primary cell samples from pleural effusion of patients with small cell lung cancer, and LT015 was a primary cell sample from bronchoscopic biopsy of a patient with small cell lung cancer.
(§14) (2) CCK-8 detection was used to detect the IC50 values of different medicaments (compounds).

PE062 primary cells = test: Cell viability IC50 (CCK-8), primary cells PE062 from small cell lung cancer pleural effusion; type: cell-based; settings: PE062, CCK-8
Protocol: as §3, §4, §5, §6, §7, §8, §9, §10, §11, §12, §13, §14

SW620 (colon cancer) = test: Cell viability IC50 (CellTiter-Glo), SW620; type: cell-based; settings: Homo sapiens, SW-620, SW620, 72 hours
Protocol: (§15) The cancer cell lines were cultured to the logarithmic growth phase according to conventional culture methods, and the cells were inoculated into a 384-well plate at a density of 2,000 cells/well in a volume of 40 μl/well. The concentrations of added compounds were: […], 1.67 μM, 0.56 μM, 0.19 μM, 0.062 μM, 0.021 μM, 0.0069 μM, 0.0023 μM, 0.00076 μM, and 0 μM. After 72 hours, cell viability was detected using the CellTiter-Glo™ Detection Kit.

Cal-62 (thyroid cancer) = test: Cell viability IC50 (CellTiter-Glo), Cal-62; type: cell-based; settings: Homo sapiens, Cal-62, 72 hours
Protocol: as §15

[1] = tested on: MDA-MB-231 (breast cancer); test: Cell viability IC50 (CellTiter-Glo), MDA-MB-231; type: cell-based; settings: Homo sapiens, MDA-MB-231, 72 hours
Protocol: as §15

MCF-7 (breast cancer) = test: Cell viability IC50 (CellTiter-Glo), MCF-7; type: cell-based; settings: Homo sapiens, MCF7, MCF-7, 72 hours
Protocol: as §15

Hep3B (liver cancer) = test: Cell viability IC50 (CellTiter-Glo), Hep3B; type: cell-based; settings: Homo sapiens, 72 hours
Protocol: as §15

LN-18 (glioma) = test: Cell viability IC50 (CellTiter-Glo), LN-18; type: cell-based; settings: Homo sapiens, LN-18, 72 hours
Protocol: as §15

[2] = tested on: MiaPaca-2 (pancreatic cancer); test: Cell viability IC50 (CellTiter-Glo), MiaPaca-2; type: cell-based; settings: Homo sapiens, MIA PaCa-2, MiaPaca-2, 72 hours
Protocol: as §15

AGS (gastric cancer) = test: Cell viability IC50 (CellTiter-Glo), AGS; type: cell-based; settings: 72 hours
Protocol: as §15

NCI-H1975 cells = test: Cell viability IC50 (MTT), Gefitinib-resistant NCI-H1975 cells; settings: Homo sapiens, NCI-H1975, 72 h, read-out: cell viability IC50
Protocol: (§16) 1% sodium pyruvate was additionally added when culturing NCI-H1975 cells. All the cells were cultured in a constant temperature incubator containing 5% CO2 at 37° C.
(§17) (1) The cells were cultured to the logarithmic growth phase. […] After centrifugation at room temperature, the supernatant was discarded, and the cell precipitate was resuspended with fresh complete medium. After counting, the cells were placed at room temperature for later use.
(§18) (2) The cells were inoculated into a 96-well plate at a density of 4,000 cells/well with a volume of 100 μl/well. The wells at the outermost circle of the plate were not inoculated with cells, and instead, added with sterile water to reduce evaporation of the culture medium.
(§19) (3) After overnight culture of the cells, the medium was discarded, and a fresh medium containing different concentrations of compounds was added at 200 μl/well. The dilution method of the compound was as follows: first the compound with the highest concentration of 10 μM was prepared, and then the compound was diluted for 3 times in sequence. […] At the same time, a blank control group was set up, in which only an equal volume of culture medium was added without adding cells. Six replicate wells were set up for each group. The cells were placed in the incubator for further culture.
(§20) (4) After 72 hours, 20 μl of MTT solution (5 mg/ml) sterilized by filtration through a 0.22 m filter membrane was added to each well, and the cells were cultured in an incubator at 37° C. for another 4 hours.
(§21) (6) IC50 of the compounds for different cells was calculated based on the light absorption value of each group. Specifically, the absorbance value under treatment with different concentrations of compounds was first subtracted from the absorbance value of the blank well, and then the absorbance value of the 0 μM group was taken as 100% to calculate the cell survival rate after treatment with different concentrations of compounds. That is, survival rate=((ODexperimental well−ODblank control)/(ODnegative control−ODblank control))×100%. IC50 values were calculated based on the survival rate and concentration of the compound.

NCI-H1650 cells = test: Cell viability IC50 (MTT), Gefitinib- and Osimertinib-resistant NCI-H1650 cells; settings: Homo sapiens, NCI-H1650, 72 h, read-out: cell viability IC50
Protocol: as §16, §17, §18, §19, §20, §21

[3] = tested on: small cell lung cancer cell line H446 cells; test: In vivo antitumor effect in mice bearing small cell lung cancer cell line H446 cells (CDX model)
Protocol: H446 cells in the logarithmic growth phase were suspended in PBS solution, and then inoculated subcutaneously in the right forelimb of nude mice. The cell density was about 2×10^8 cells/mL, and each mouse was inoculated with 0.1 mL of the cell suspension, for a total of 80 mice. When the subcutaneous tumor grew to range from 50 mm^3 to 100 mm^3, 40 tumor-bearing mice were randomly divided into groups and numbered, and drug administration began.
(1) Vehicle blank control group: 5% DMSO+20% PEG 300+75% saline (normal saline);
The cycle repeated twice, and no medication for the final 6 days.
All tumor-bearing mice were killed after 20 days.

PE043 primary cells = test: Cell viability IC50 (CCK-8), primary cells PE043 from lung adenocarcinoma pleural effusion resistant to EGFR-TKI; settings: read-out: cell viability IC50

SMILES: CN1CC2CCC(C1)N2Cc1ccc(Nc2ncc(Cl)c(Nc3ccccc3S(=O)(=O)N(C)C)n2)cc1 [Compound 8, 2-((5-chloro-2-((4-((3-methyl-3,8-diazabicyclo[3.2.1]octan-8-yl)methyl)phenyl)amino)pyrimidin-4-yl)amino)-N,N-dimethylbenzenesulfonamide]
- IC50 (NCI-H146 cells): 9.92 nM
- IC50 (NCI-H82 cells): 5.15 nM
- IC50 (PE039 primary cells): 51.5 nM
- IC50 (PE052 primary cells): 59.9 nM
- IC50 (PE062 primary cells): 2.7 nM
- IC50 (SW620 (colon cancer)): 101 nM
- IC50 (Cal-62 (thyroid cancer)): 21.9 nM
- IC50 [1]: 49.9 nM
- IC50 (MCF-7 (breast cancer)): 52.8 nM
- IC50 (Hep3B (liver cancer)): 185 nM
- IC50 (LN-18 (glioma)): 7.8 nM
- IC50 [2]: 13.2 nM
- IC50 (AGS (gastric cancer)): 36.2 nM
- IC50 (NCI-H1975 cells): 55.2 nM
- IC50 (NCI-H1650 cells): 83.6 nM
- toxicity ([3]; H446 CDX nude mice, 15 mg/kg, judged from body weight): not significant
- inhibitory effect on tumor volume growth compared with blank control (FIG. 1) ([3]; H446 CDX nude mice, intraperitoneal injection, 20 days): significantly inhibited the growth of tumor volume
- animals survived ([3]; H446 CDX nude mice, intraperitoneal injection, 20 days, compound 8 and TP-0903 15 mg/kg once a day for 13 days, Cisplatin 2.5 mg/kg + Etoposide 4 mg/kg cycles): 11 out of 12
- body weight changes of nude mice (FIG. 2) ([3]; during the drug administration period, recovered rapidly after drug withdrawal): slight decrease in body weight
- IC50 (PE043 primary cells): 34.6 nM
